System: Chemotherapeutic agent-caused constipation models of Balb/c mice
Experiment: Relieving effect on constipation caused by a chemotherapeutic agent (Examples 202-364)
Type: in vivo
Description: Construction of mouse animal models: Chemotherapeutic agent-caused constipation models of Balb/c mice were constructed according to the administration mode and frequency of the chemotherapeutic agent as shown in Table 4. […] Thus, chemotherapeutic agent-caused constipation models of mice are very good models to mimic constipation caused by the chemotherapeutic agent.
Balb/c mice were fed for 1 week, and then divided into groups. The experiment was divided into a control group, a chemotherapeutic agent group, and a group of the compound as shown in Formula I, each of which comprised 10 mice, to perform the administration experiment, for which the administration dosage, mode, time and frequency were shown in Table 4. The control group: being injected or intragastrically administered with the same solvent as that used in the group of the compound as shown in Formula I (the administration mode and time were shown in Table 4), and then being injected or intragastrically administered with the same solvent as that used in the chemotherapeutic agent group (the administration mode was shown in Table 4); the chemotherapeutic agent group: being injected or intragastrically administered with the same solvent as that used in the group of the compound as shown in Formula I (the administration mode and time was shown in Table 4), and then being injected or intragastrically administered with the chemotherapeutic agent (the type, administration mode and dosage were shown in Table 4); the group of the compound as shown in Formula I: being injected or intragastrically administered with the compound as shown in Formula I (the administration mode and time was shown in Table 4), and then being administered with the chemotherapeutic agent (the administration mode and dosage were shown in Table 4).
The feces reduction rate was calculated with reference to the method of Ji Eun Kim (Lab Anim Res. 2016 December; 32(4): 231-240.). Feces reduction rate (%)=(the control group−the chemotherapeutic agent group or the group of the compound as shown in Formula I)/the control group*100%
It is regarded as effective remission when the feces reduction rate of mice in the group of the compound as shown in Formula I is reduced compared with that in the chemotherapeutic agent group.
The feces amount of mice within 3 hours was observed and recorded every day. At the end of the experiment, the number of mice in the group of the compound as shown in Formula I whose feces reduction rate was lower than that of mice in the chemotherapeutic agent group was recorded. Table 4 lists various animal experiment combinations of chemotherapeutic agents and the compound as shown in Formula I, as well as the corresponding experimental results.

CN1CCN(c2ccc(Nc3ncc4cc5n(c4n3)C3(CCCCC3)CNC5=O)nc2)CC1 [Compound I, Trilaciclib]
Relative remission rate (%) (Example 303, Irinotecan (CPT-11) intraperitoneal injection 260 mg/kg single, compound intravenous injection 150 mg/kg single, 22 h before chemotherapeutic agent, cycle 8 days): 40%
Relative remission rate (%) (Example 304, Irinotecan (CPT-11) intraperitoneal injection 260 mg/kg single, compound intravenous injection 150 mg/kg single, 24 h before chemotherapeutic agent, cycle 8 days): 40%
Relative remission rate (%) (Example 305, Irinotecan (CPT-11) intraperitoneal injection 260 mg/kg single, compound intravenous injection 150 mg/kg single, 48 h before chemotherapeutic agent, cycle 8 days): 0%
Relative remission rate (%) (Example 306, Irinotecan (CPT-11) oral administration 300 mg/kg single, compound intraperitoneal injection 100 mg/kg single, 24 h before chemotherapeutic agent, cycle 10 days): 60%
Relative remission rate (%) (Example 307, Irinotecan (CPT-11) intramuscular injection 260 mg/kg single, compound intramuscular injection 100 mg/kg single, 1 h before chemotherapeutic agent, cycle 7 days): 60%
Relative remission rate (%) (Example 308, Irinotecan (CPT-11) intravenous injection 260 mg/kg single, compound oral administration 100 mg/kg single, 12 h before chemotherapeutic agent, cycle 7 days): 50%
Relative remission rate (%) (Example 309, Fluorouracil 125 (F) and irinotecan 240 (I) mg/kg intravenous injection single, compound intravenous injection 100 mg/kg single, 0.5 h before chemotherapeutic agent, cycle 10 days): 40%
Relative remission rate (%) (Example 310, Fluorouracil 125 (F) and irinotecan 240 (I) mg/kg intravenous injection single, compound intravenous injection 100 mg/kg single, 4 h before chemotherapeutic agent, cycle 10 days): 60%
Relative remission rate (%) (Example 311, Fluorouracil 125 (F) and irinotecan 240 (I) mg/kg intravenous injection single, compound intravenous injection 100 mg/kg single, 8 h before chemotherapeutic agent, cycle 10 days): 60%
Relative remission rate (%) (Example 312, Fluorouracil 125 (F) and irinotecan 240 (I) mg/kg intravenous injection single, compound intravenous injection 100 mg/kg single, 12 h before chemotherapeutic agent, cycle 10 days): 70%
Relative remission rate (%) (Example 313, Fluorouracil 125 (F) and irinotecan 240 (I) mg/kg intravenous injection single, compound intravenous injection 100 mg/kg single, 24 h before chemotherapeutic agent, cycle 10 days): 50%
Relative remission rate (%) (Example 314, Fluorouracil 125 (F) and irinotecan 240 (I) mg/kg intravenous injection single, compound intravenous injection 100 mg/kg single, 48 h before chemotherapeutic agent, cycle 10 days): 0%
Relative remission rate (%) (Example 318, Fluorouracil 125 (F) and irinotecan 240 (I) mg/kg intraperitoneal injection single, compound intraperitoneal injection 100 mg/kg single, 1 h before chemotherapeutic agent, cycle 7 days): 40%
Relative remission rate (%) (Example 319, Fluorouracil 125 (F) and irinotecan 240 (I) mg/kg intraperitoneal injection single, compound intraperitoneal injection 100 mg/kg single, 12 h before chemotherapeutic agent, cycle 7 days): 50%
Relative remission rate (%) (Example 322, Fluorouracil 100 (F) and oxaliplatin 5 (O) and irinotecan 100 (I) mg/kg intraperitoneal injection single, compound intraperitoneal injection 300 mg/kg single, 0.5 h before chemotherapeutic agent, cycle 8 days): 30%
Relative remission rate (%) (Example 323, Fluorouracil 100 (F) and oxaliplatin 5 (O) and irinotecan 100 (I) mg/kg intraperitoneal injection single, compound intraperitoneal injection 300 mg/kg single, 4 h before chemotherapeutic agent, cycle 8 days): 30%
Relative remission rate (%) (Example 324, Fluorouracil 100 (F) and oxaliplatin 5 (O) and irinotecan 100 (I) mg/kg intraperitoneal injection single, compound intraperitoneal injection 300 mg/kg single, 8 h before chemotherapeutic agent, cycle 8 days): 60%
Relative remission rate (%) (Example 325, Fluorouracil 100 (F) and oxaliplatin 5 (O) and irinotecan 100 (I) mg/kg intraperitoneal injection single, compound intraperitoneal injection 300 mg/kg single, 12 h before chemotherapeutic agent, cycle 8 days): 50%
Relative remission rate (%) (Example 326, Fluorouracil 100 (F) and oxaliplatin 5 (O) and irinotecan 100 (I) mg/kg intraperitoneal injection single, compound intraperitoneal injection 300 mg/kg single, 24 h before chemotherapeutic agent, cycle 8 days): 40%
Relative remission rate (%) (Example 327, Fluorouracil 100 (F) and oxaliplatin 5 (O) and irinotecan 100 (I) mg/kg intraperitoneal injection single, compound intraperitoneal injection 300 mg/kg single, 48 h before chemotherapeutic agent, cycle 8 days): 0%
Relative remission rate (%) (Example 328, Fluorouracil 100 (F), oxaliplatin 5 (O), irinotecan 100 (I) and tetrahydrofolic acid 100 (L) mg/kg intravenous injection single, compound intravenous injection 100 mg/kg single, 0.5 h before chemotherapeutic agent, cycle 8 days): 20%
Relative remission rate (%) (Example 329, Fluorouracil 100 (F), oxaliplatin 5 (O), irinotecan 100 (I) and tetrahydrofolic acid 100 (L) mg/kg intravenous injection single, compound intravenous injection 100 mg/kg single, 1 h before chemotherapeutic agent, cycle 8 days): 30%
Relative remission rate (%) (Example 330, Fluorouracil 100 (F), oxaliplatin 5 (O), irinotecan 100 (I) and tetrahydrofolic acid 100 (L) mg/kg intravenous injection single, compound intravenous injection 100 mg/kg single, 2 h before chemotherapeutic agent, cycle 8 days): 30%
Relative remission rate (%) (Example 331, Fluorouracil 100 (F), oxaliplatin 5 (O), irinotecan 100 (I) and tetrahydrofolic acid 100 (L) mg/kg intravenous injection single, compound intravenous injection 100 mg/kg single, 3 h before chemotherapeutic agent, cycle 8 days): 50%
Relative remission rate (%) (Example 332, Fluorouracil 100 (F), oxaliplatin 5 (O), irinotecan 100 (I) and tetrahydrofolic acid 100 (L) mg/kg intravenous injection single, compound intravenous injection 100 mg/kg single, 4 h before chemotherapeutic agent, cycle 8 days): 50%
Relative remission rate (%) (Example 333, Fluorouracil 100 (F), oxaliplatin 5 (O), irinotecan 100 (I) and tetrahydrofolic acid 100 (L) mg/kg intravenous injection single, compound intravenous injection 100 mg/kg single, 6 h before chemotherapeutic agent, cycle 8 days): 40%
Relative remission rate (%) (Example 334, Fluorouracil 100 (F), oxaliplatin 5 (O), irinotecan 100 (I) and tetrahydrofolic acid 100 (L) mg/kg intravenous injection single, compound intravenous injection 100 mg/kg single, 8 h before chemotherapeutic agent, cycle 8 days): 60%
Relative remission rate (%) (Example 335, Fluorouracil 100 (F), oxaliplatin 5 (O), irinotecan 100 (I) and tetrahydrofolic acid 100 (L) mg/kg intravenous injection single, compound intravenous injection 100 mg/kg single, 10 h before chemotherapeutic agent, cycle 8 days): 60%

Source: patent US20240285634A1, “COMPOUND AND METHOD FOR TREATING CHEMOTHERAPY-ASSOCIATED GASTROINTESTINAL SIDE EFFECTS” (ONQUALITY PHARMACEUTICALS CHINA LTD., priority 2021, published 2024)
